One experiment deals with T1, T4 polynucleotide kinase (Enterobacteria phage T4, UniProt P06855).
T1 construct: purchased Takara Bio (Tokyo, Japan)
The experiment can be described thus: T4 polynucleotide kinase assay. The conditions noted are these: 100 μM. It counts as biochemical. From the text:
Pol α was purified from calf thymus by immuno-affinity column chromatography, as described by Tamai et al.. Recombinant rat pol β was purified from E. coli JMpβ5, as described by Date et al.. The human pol γ catalytic gene was cloned into pFastBac. Histidine-tagged enzyme was expressed using the BAC-TO-BAC HT Baculovirus Expression System according to the supplier’s manual (Life Technologies, MD, USA) and purified using ProBoundresin (Invitrogen Japan, Tokyo, Japan). Human pols δ and ɛ were purified by nuclear fractionation of human peripheral blood cancer cells (Molt-4) using the second subunit of pols δ and ɛ-conjugated affinity column chromatography, respectively. A truncated form of human pol η (residues 1–511) tagged with His6 at its C-terminal was expressed in E. coli cells and purified as described by Kusumoto et al.. […]
The activities of calf primase of pol α, human telomerase, T7 RNA polymerase, mouse IMP dehydrogenase, human DNA topoisomerases I and II, T4 polynucleotide kinase and bovine DNase I were measured in standard assays according to the manufacturer’s specifications, as described by Tamiya-Koizumi et al., Oda et al., Nakayama et al., Mizushina et al., Ishimaru et al., Soltis et al. and Lu et al., respectively.

The subject of experiment [1] is HeLa (cervix carcinoma cells). The experiment can be described thus: Cancer cell growth, MTT assay, HeLa. It counts as cell-based, human. The settings on record: 24 h. On the procedure: Figure 5. (A) Human cancer cell growth inhibition dose-response curves of 3-O-methyl-funicone (1). Various concentrations (0 to 150 μM) of compound 1 were incubated with human colon carcinoma (HCT116) cells (circle) and human cervix carcinoma (HeLa) cells (square) for 24 h. Rate of cell growth was determined by MTT assay as described in the Experimental section. Data are shown as the means ± SEM of five independent experiments. (B) Clonogenic survival of UV-treated HeLa cells by compound 1. Various concentrations (0 to 100 μM) of compound 1 were incubated with 10 J/m^2 UV-treated (closed circle) or untreated (open circle) HeLa cells. After 7 days, the number of colonies in each treatment group was counted. Values are the means ± SEM of two independent experiments.
Human colon carcinoma cell line, HCT116, was a kind gift from Dr. Bert Vogelstein (Johns Hopkins University, Baltimore, […], USA). Human cervix carcinoma cell line, HeLa, was obtained from Health Science Research Resources Bank (Osaka, Japan). The cells were maintained in McCoy’s 5A medium supplemented with 10% FBS, sodium bicarbonate (2 g/L) and streptomycin (100 μg/mL). The cells were cultured at 37 °C in standard medium in a humidified atmosphere of 5% CO2-95% air. […] After incubation for 24 h, the survival rate was determined by MTT (3-(4,5-dimethylthiazol-2-yl)-2,5-diphenyl tetrazolium bromide) assay.
For orientation: Tetrazolium assays rely on reduction of a dye to a coloured formazan, in cell work by metabolically active cells.

T1 sequence (P06855 whole entry): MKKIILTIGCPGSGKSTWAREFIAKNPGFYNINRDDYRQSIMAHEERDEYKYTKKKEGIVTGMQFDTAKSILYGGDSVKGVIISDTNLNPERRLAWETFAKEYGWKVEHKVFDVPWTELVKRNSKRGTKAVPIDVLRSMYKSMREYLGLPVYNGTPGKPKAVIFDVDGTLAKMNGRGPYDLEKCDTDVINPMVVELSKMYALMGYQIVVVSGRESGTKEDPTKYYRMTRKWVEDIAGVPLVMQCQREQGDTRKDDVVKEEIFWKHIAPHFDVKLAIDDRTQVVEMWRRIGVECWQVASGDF

For `C/C=C/c1occ(C(=O)c2c(OC)cc(OC)cc2C(=O)OC)c(=O)c1OC` [compound 1, 3-O-methylfunicone], the “effect on T4 polynucleotide kinase activity” value at T4 polynucleotide kinase is on record as “did not influence”. The “LD50, cell growth” value in experiment [1] was determined as 63.3 µM.

Values taken from paper PMC2810227, “3-O-Methylfunicone, a Selective Inhibitor of Mammalian Y-Family DNA Polymerases from an Australian Sea Salt Fungal Strain” (Marine Drugs, 2009).
